Target: Polyadenylate-binding protein 1 (Homo sapiens, UniProt P11940)
Experiment: PABP poly(A) RNA binding inhibitors, primary screen, biochemical, fluorescence polarization, uHTS (AID 2014)

Chain of Polyadenylate-binding protein 1 (P11940 whole entry): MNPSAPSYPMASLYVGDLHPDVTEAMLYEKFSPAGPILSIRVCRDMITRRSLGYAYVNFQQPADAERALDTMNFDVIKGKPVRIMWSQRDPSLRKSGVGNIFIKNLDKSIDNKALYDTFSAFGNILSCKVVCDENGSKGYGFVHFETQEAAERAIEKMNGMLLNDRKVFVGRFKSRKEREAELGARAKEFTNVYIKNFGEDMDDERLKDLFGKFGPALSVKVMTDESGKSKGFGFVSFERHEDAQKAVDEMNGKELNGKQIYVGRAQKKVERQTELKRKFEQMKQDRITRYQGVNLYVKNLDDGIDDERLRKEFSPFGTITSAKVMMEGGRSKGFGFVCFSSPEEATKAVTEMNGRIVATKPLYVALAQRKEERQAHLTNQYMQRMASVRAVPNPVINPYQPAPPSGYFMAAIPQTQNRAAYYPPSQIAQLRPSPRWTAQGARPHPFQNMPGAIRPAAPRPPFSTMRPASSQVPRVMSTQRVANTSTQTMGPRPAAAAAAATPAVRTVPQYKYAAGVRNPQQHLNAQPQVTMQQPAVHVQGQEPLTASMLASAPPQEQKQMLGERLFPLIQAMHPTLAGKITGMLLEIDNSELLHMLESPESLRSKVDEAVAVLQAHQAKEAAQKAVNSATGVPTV

Compound | IC50 [µM]
CC1=NC(=O)NC(c2ccco2)C1C(=O)OC(C)C (centres undefined) [SMR000120838] | 42.8
COc1cc(C)cc(C(=O)O)c1C1C(=O)C(=O)c2c(O)cccc2C1=O (centres undefined) [MLS000877007] | 5.41
O=C1N=c2ccccc2=C1NNC(=O)c1cc(-c2cccs2)n[nH]1 [N'-(2-oxoindol-3-yl)-5-thiophen-2-yl-1H-pyrazole-3-carbohydrazide] | 28.8
COc1ccc2c(c1)=C(NNC(=O)Cc1cccs1)C(=O)N=2 | 31
COc1ccc(CN=Nc2nc(O)c(CC(=O)O)s2)cc1OCc1ccc(Cl)cc1Cl [[2-({3-[(2,4-dichlorobenzyl)oxy]-4-methoxybenzylidene}hydrazono)-4-oxo-1,3-thiazolidin-5-yl]acetic acid] | 64.3
O=C(O)c1ccc(N=NCc2cc3c(cc2[N+](=O)[O-])OCO3)cc1 | 48.8
CC[N+](C)(CC)CCCC(N=O)C(O)(c1ccccc1)c1ccccc1 (centres undefined) [diethyl-(5-hydroxy-4-hydroxyimino-5,5-diphenylpentyl)-methylammonium;iodide] | 5.57
CC1(C)Oc2ccc3ccc(=O)oc3c2C(CN=O)=C1Cl [9-chloro-2-keto-8,8-dimethyl-pyrano[2,3-f]chromene-10-carbaldehyde oxime] | 10.3
CCn1c(=NC(=O)c2ccc(-n3c(O)ccc3O)cc2)sc2c(OC)ccc(OC)c21 [4-[2,5-bis(oxidanylidene)pyrrolidin-1-yl]-N-(3-ethyl-4,7-dimethoxy-1,3-benzothiazol-2-ylidene)benzamide] | 100

From BindingDB's records for doi:10.7270/Q2ZC819K (Burnham Center For Chemical Genomics, 2009)
